# Measured values: DBAASP
# Assays:
# Test in all cases: ≥ marks a high value that may be exact or a test limit, other limits are often not marked, values filed in µg/mL are converted to µM
# [1] = tested on: Bacillus subtilis ATCC 23857
# [2] = tested on: Escherichia coli ATCC 25922
# Escherichia coli ML-35 = tested on: Escherichia coli ML-35
# [3] = tested on: Staphylococcus aureus ATCC 29213
# [4] = tested on: Staphylococcus epidermidis ATCC 12228
# Streptococcus mutans = tested on: Streptococcus mutans
# [5] = tested on: Enterococcus faecalis ATCC 29212
# [6] = tested on: Salmonella enterica subsp. enterica serovar Pullorum C79-13
# [7] = tested on: Salmonella enterica subsp. enterica serovar Typhimurium C77-31
# Bacillus subtilis = tested on: Bacillus subtilis
# [8] = tested on: Candida albicans ATCC 2002
# Candida albicans = tested on: Candida albicans
# Escherichia coli = tested on: Escherichia coli
# [9] = tested on: Pseudomonas aeruginosa CMCCB 10104
# [10] = tested on: Staphylococcus aureus ATCC 25923
# Staphylococcus aureus = tested on: Staphylococcus aureus
structure (smiles),measurement,setting,value
CC[C@H](C)[C@H](N)C(=O)N[C@@H](CC(C)C)C(=O)NCC(=O)N[C@H](C(=O)N[C@H](C(=O)N[C@@H](CC(C)C)C(=O)N1CCC[C@H]1C(=O)N[C@@H](CC(C)C)C(=O)N[C@@H](CC(C)C)C(=O)N[C@@H](CCCCN)C(=O)NCC(=O)N[C@@H](CC(C)C)C(N)=O)[C@@H](C)CC)[C@@H](C)O [ILGTILPLLKGL],MIC,[1],≥ 256 µM
same,MIC,[2],> 256 µM
same,MIC,Escherichia coli ML-35,≥ 256 µM
same,MIC,[3],> 256 µM
same,MIC,[4],> 256 µM
CC[C@H](C)[C@H](NC(=O)[C@H](CC(N)=O)NC(=O)[C@H](CCCCN)NC(=O)[C@H](CC(C)C)NC(=O)[C@H](CCC(N)=O)NC(=O)[C@H](CCC(N)=O)NC(=O)[C@@H](NC(=O)[C@H](CC(C)C)NC(=O)[C@@H](N)CCCCN)C(C)C)C(=O)N[C@@H](Cc1ccccc1)C(=O)N[C@@H](CCCN=C(N)N)C(=O)O [KLVQQLKNIFR],MIC,Streptococcus mutans,≥ 90.1 µM
CC(C)C[C@H](NC(=O)[C@H](CC(C)C)NC(=O)[C@H](CCCCN)NC(=O)[C@H](CC(C)C)NC(=O)[C@H](CC(C)C)NC(=O)[C@H](CCCCN)NC(=O)[C@H](CCCCN)NC(=O)[C@H](CC(C)C)NC(=O)[C@H](CC(C)C)NC(=O)[C@H](CCCCN)NC(=O)[C@@H](N)CC(C)C)C(=O)N[C@@H](CCCCN)C(=O)N[C@@H](CCCCN)C(=O)N[C@@H](Cc1ccccc1)C(N)=O [LKLLKKLLKLLKKF],MIC,Streptococcus mutans,4.63 µM
CC(C)C[C@H](NC(=O)[C@@H](NC(=O)[C@@H](NC(=O)[C@@H](N)CC(C)C)C(C)C)[C@@H](C)O)C(=O)N[C@H](C(=O)N[C@@H](Cc1ccccc1)C(=O)N[C@H](C(=O)O)C(C)C)C(C)C [LVTLVFV],MIC,[5],> 128 µM
same,MIC,[2],> 128 µM
same,MIC,[6],≥ 128 µM
same,MIC,[7],≥ 128 µM
same,MIC,[3],> 128 µM
same,MIC,[4],> 128 µM
NC(N)=NCCC[C@H](NC(=O)[C@H](Cc1c[nH]c2ccccc12)NC(=O)[C@H](Cc1c[nH]c2ccccc12)NC(=O)[C@H](Cc1ccccc1)NC(=O)[C@H](CCCN=C(N)N)NC(=O)[C@H](CCCN=C(N)N)NC(=O)[C@@H](N)CCCN=C(N)N)C(=O)O [RRRFWWR],MIC,Streptococcus mutans,≥ 53.8 µM
NC(N)=NCCC[C@H](NC(=O)[C@H](CCCN=C(N)N)NC(=O)[C@H](Cc1c[nH]c2ccccc12)NC(=O)[C@H](Cc1c[nH]c2ccccc12)NC(=O)[C@H](CCCN=C(N)N)NC(=O)[C@@H](N)CCCN=C(N)N)C(=O)N[C@@H](Cc1c[nH]c2ccccc12)C(=O)O [RRWWRRW],MIC,Streptococcus mutans,13.3 µM
CC[C@H](C)[C@H](NC(=O)[C@@H](N)C(C)C)C(=O)N1CCC[C@H]1C(=O)N[C@@H](Cc1ccccc1)C(=O)N[C@H](C(=O)N[C@@H](C)C(=O)N[C@@H](CO)C(=O)N[C@H](C(=O)N[C@@H](C)C(=O)N[C@@H](C)C(=O)N[C@@H](CCC(=O)O)C(=O)N[C@@H](CCSC)C(=O)N[C@@H](CCSC)C(=O)N[C@@H](CCC(N)=O)C(=O)N[C@@H](Cc1cnc[nH]1)C(=O)N[C@H](C(=O)N[C@@H](Cc1ccc(O)cc1)C(=O)N[C@H]1CSSC[C@@H](C(=O)O)NC(=O)[C@H](CCCCN)NC(=O)[C@H](CCCCN)NC(=O)[C@H](CO)NC(=O)[C@H](C)NC(=O)[C@H](C)NC1=O)C(C)C)C(C)C)C(C)C [VIPFVASVAAEMMQHVYCAASKKC],MIC,Bacillus subtilis,0.677 µM
same,MIC,[8],4.02 µM
same,MIC,Candida albicans,0.677 µM
same,MIC,[2],4.02 µM
same,MIC,Escherichia coli,1.35 µM
same,MIC,[9],2.01 µM
same,MIC,[10],8.05 µM
same,MIC,Staphylococcus aureus,1.35 µM
CC(C)C[C@H](NC(=O)[C@H](Cc1cnc[nH]1)NC(=O)[C@H](CCC(N)=O)NC(=O)[C@H](Cc1c[nH]c2ccccc12)NC(=O)[C@@H](NC(=O)[C@H](CCC(N)=O)NC(=O)[C@H](Cc1ccccc1)NC(=O)[C@H](CC(C)C)NC(=O)[C@@H](N)Cc1ccc(O)cc1)[C@@H](C)O)C(=O)N[C@@H](Cc1ccccc1)C(=O)N[C@@H](CCCN=C(N)N)C(=O)O [YLFQTWQHLFR],MIC,Streptococcus mutans,≥ 81.2 µM
